Source: patent US6342219B1 (Board of Regents, The University of Texas System, priority 1999, dated 2002)

Columns and labels:
[1] = tested on: tumor sections (endothelium, connective tissue, tumor cell); assay: Immunohistochemistry on frozen tumor sections (reactivity pattern); type: binding; parameters: key: EC = endothelium; CT = connective tissue; TC = tumor cell; NR = no reaction; conditions: acetone fixed frozen sections; 2C3 and 12D7 at 20 μg/ml, others 5-10 μg/ml
Experimental: Guinea pig line 10 hepatocellular carcinoma tumor cells (obtained from Dr. Ronald Neuman, NIH, Bethesda, Md.) were grown in strain 2 guinea pigs (NCI, Bethesda, Md.). The human tumors NCI-H358 non-small cell lung carcinoma (NSCLC), NCI-H460 NSCLC (both obtained from Dr. Adi Gazdar, UT Southwestern, Dallas, Tex.), HT29 colon adenocarcinoma (American Type Culture Collection), and L540CY Hodgkin's lymphoma (obtained from Professor V. Diehl, Cologne, Germany) were grown as xenografts in CB17 SCID mice (Charles River, Wilmington, Mass.).
Tumors were snap frozen in liquid nitrogen and stored at −70° C. Frozen samples of tumor specimens from patients were obtained from the National Cancer Institute Cooperative Human Tissue Network (Southern Division, Birmingham, Ala.). Immunohistochemistry was performed as described by Burrows et al. (1995). […]
The immunohistochemical reactivity of 3E7, GV39M, and 11B5 on NCI-H358 human NSCLC xenografts was determined and compared with control antibodies (an IgG of irrelevant specificity; A-20, a rabbit anti-VEGF antibody; and MECA 32, a rat anti-mouse endothelial cell antibody). […]

KDR on ABAE cells = assay: 125I-VEGF binding studies on KDR expressing endothelial cells; parameters: species or system bovine
[2] = tested on: NCI-H358 NSCLC and HT29 colon adenocarcinoma xenografts and normal organs; assay: In vivo localization to human tumor xenografts in mice; parameters: species or system mouse; key to Immunohistochemical Reactivity, Heart / Immunohistochemical Reactivity, Lung / Immunohistochemical Reactivity, Liver / Immunohistochemical Reactivity, Kidney / Immunohistochemical Reactivity, Intestine / Immunohistochemical Reactivity, Spleen / Immunohistochemical Reactivity, Tumor: −, negative; +/−, very weak; 1+, weak; 2+, moderate; 3+, strong; 4+, very strong
Experimental: Tumors were grown subcutaneously in immunocompromised mice (NCI-H358 NSCLC in nu/nu mice and HT29 colon adenocarcinoma in SCID mice) until the tumor volume was approximately 1 cm^3. 100μg of unlabeled antibody for studies using SCID mice, or 100 μg of biotinylated antibody for studies using nude mice, was injected intravenously via a tail vein. Twenty four hours later, the mice were anesthetized, perfused with PBS, and tumor and organs including heart, lungs, liver, kidneys, intestines and spleen were collected and snap frozen in liquid nitrogen.
The tumor and organs from each mouse were sectioned on a cryostat and stained for antibody immunohistochemically as above, with the exception that sections from the nude mice were developed using peroxidase labeled streptavidin-biotin complex (Dako, Carpinteria, Calif.) and the sections from the SCID mice were developed using two peroxidase-conjugated secondary antibodies, a goat anti-mouse IgG+IgM followed by a rabbit anti-goat Ig.
Twenty-four hours later, the mice were sacrificed, exsanguinated and the tumors and tissues were removed.

VEGFR2 in PAE/KDR cells = assay: VEGF-induced phosphorylation of VEGFR2 (immunoprecipitation and Western blot); type: cell-based, porcine; conditions: antibodies at 100 nM, 15 min
Experimental: PAE/KDR, PAE/FLT, and bEND.3 cells were grown to 80-90% confluency in 100 mm tissue dishes in media containing 5% serum. The cells were then serum starved for 24 hours in media containing 0.1% serum. After pretreatment with 100 […] in PBS for 30 min, the cells were incubated with 5 nM (200 ng/ml) VEGF165, 5 nM (100 ng/ml) bFGF (R&D Systems, Minneapolis, Minn.), or A673 tumor conditioned media in the presence or absence of control or test antibodies for additional 15 min.
The cells were then washed with ice-cold PBS containing 10 mM EDTA, 2 mM sodium fluoride, and 2 mM sodium orthovanadate and lysed in lysis buffer (50 mM Tris, 150 mM NaCl, 1% Nonidet P-40, 0.25% sodium deoxycholate, 0.1% CHAPS, 5 mM EDTA, 1.5 mM MgCl2, 2 mM sodium fluoride, 2 mM sodium orthovanadate, 10% glycerol and protease inhibitors (Complete Protease Inhibitor Cocktail tablets, Boehringer Mannheim)). The lysates were clarified by centrifugation and resulting supernatant used for immunoprecipitation.
The reactions using the chicken anti-FLT-1 antibody were subsequently incubated with a bridging goat anti-chicken antibody (Kirkegaard and Perry Laboratories, Inc.) for 1 h at 4° C. […]

NCI-H358 NSCLC = assay: In vivo tumor growth inhibition, newly implanted NCI-H358; parameters: species or system nu/nu mice
Experimental: FIG. 3A and FIG. 3B. […] FIG. 3A: 1×10^7 NCI-H358 NSCLC cells were injected subcutaneously into nu/nu mice on day 0. FIG. 3B: 5×10^6 A673 rhabdomyosarcoma cells were injected subcutaneously into nu/nu mice on day 0. Mice were injected i.p. with the indicated IgG on day 1 and 2 times/week thereafter. […] Tumors were measured 2-3 times per week. Mean and standard error is shown for the duration of the study in FIG. 3A, while data for the last day of the study (day 26) is shown in FIG. 3B.
Nu/nu mice were injected subcutaneously with either 1×10^7 NCI-H358 NSCLC cells or 5×10^6 A673 rhabdomyosarcoma cells on day 0. […] The tumors were then measured twice per wk for a period of approximately six wk for the NCI-H358 bearing mice and four wk for the A673 bearing mice. Tumor volume was calculated according to the formula: volume=L×W×H, where L=length, W=width, H=height.

[3] = tested on: LS174T colon adenocarcinoma; assay: Treatment of established LS174T tumors; parameters: species or system mice; conditions: mouse, in vivo
[4] = 24 hours after i.v. antibody, 2C3 in NCI-H358 nu/nu mice, 3E7 and GV39M in HT29 SCID mice

2C3: anti-VEGF monoclonal antibody, IgG2a, k, produced by hybridoma ATCC PTA 1595; blocks VEGF binding to VEGFR2 but not VEGFR1 [Clone 2C3]
Reactivity (immunohistochemical pattern on tumor sections) [1]: NR
Blocking of 125I-VEGF binding to KDR (KDR on ABAE cells): blocks VEGF from binding to KDR in a concentration dependent manner
Immunohistochemical Reactivity, Heart [2, 4]: −
Immunohistochemical Reactivity, Intestine [2, 4]: −
Immunohistochemical Reactivity, Kidney [2, 4]: −
Immunohistochemical Reactivity, Liver [2, 4]: −
Immunohistochemical Reactivity, Lung [2, 4]: −
Immunohistochemical Reactivity, Spleen [2, 4]: −
Immunohistochemical Reactivity, Tumor ([2]; 24 hours after i.v. antibody, 3E7 and GV39M bound tumor vascular endothelium, 2C3 tumor stroma): 3+
In vivo tumor localization pattern ([2]; CT = connective tissue, BV = blood vessels): Moderate to strong
In vivo localization in the HT29 human tumor model ([2]; HT29): localized strongly to the connective tissue
In vivo normal mouse tissue localization ([2]; mouse, in vivo): None detectable
Blocking of VEGF-induced phosphorylation of VEGFR2 (VEGFR2 in PAE/KDR cells): block
Tumor growth retardation in the NCI-H358 tumor model at the lower dose (NCI-H358 NSCLC; 10 μg dose): less marked
Final tumor volume, NCI-H358 (NCI-H358 NSCLC; 100 μg i.p. 2 times per wk from day 1, controls approximately 1000 mm^3): approximately 150 mm^3
Effect on growth of established LS174T tumors [3]: significantly slowed the growth
